Measured values published in US11612605B2, “(+)-azasetron for use in the treatment of ear disorders” (SENSORION, priority 2016, dated 2023).
Read-outs that look alike come from different tables or passages of the source.

Assay: Pharmacokinetics study: exposure in inner ear, perilymph and tail plasma after single oral dose
Format: in vivo, Wistar rats
Conditions: for Total AUC Inner ear / Total AUC Perilymph / Total AUC Tail plasma / concentration at 15 min / concentration at 30 min / concentration at 60 min / concentration at 120 min / concentration at 240 min / concentration at 480 min: 10 mg/kg p.o. single dose; for concentration at 15 min / concentration at 30 min / concentration at 60 min / concentration at 120 min / concentration at 240 min / concentration at 480 min / AUC: male, Wistar, rat; for concentration at 15 min / concentration at 30 min / concentration at 60 min / concentration at 120 min / concentration at 240 min / concentration at 480 min: oral, read-out: Average Inner ear concentration (ng azasetron free-base/g tissue); for AUC: po, 10 mg/kg, 10 mg/kg p.o., per-interval AUC of azasetron free-base
Source text: The 72 male Wistar rats received on 28 Jan. 2016 from Janvier (Janvier, Le Genest-St-Isle) were assigned to the study. They were divided in 3 groups of 24 animals each, one group per test article. Each group was divided in […] subgroups according to the 6-termination time-points.
72 Wistar rats were subjected to oral single dose administration of the test article, racemic azasetron hydrochloride, azasetron hydrochloride (+) or azasetron hydrochloride (−), and sacrificed at different time-points to assess the exposure of the test article in the inner ear, perilymph, and plasma. • Group racemic azasetron: 24 male Wistar, 4 rats per time-point: 10 mg/kg azasetron HCl dissolved in NaCl 0.9%. Administrated as 5 mL/kg p.o.; • Group azasetron (+): 24 male Wistar, 4 rats per time-point: 10 mg/kg (+)-azasetron HCl dissolved in NaCl 0.9%. Administrated as 5 mL/kg p.o.; • Group azasetron (−): 24 male Wistar, 4 rats per time-point: 10 mg/kg (−)-azasetron HCl dissolved in NaCl 0.9%. Administrated as 5 mL/kg p.o.
There were 6 termination time-points for each test article. At time-points 15/30/60/120/240/480 minutes after administration: peripheral plasma from the tail was sampled. The animals were sacrificed by i.v. administration of 0.25 mL/rat of a 160 mg/mL pentobarbital solution. Following sacrifice, the heart blood and both tympanic bullas (left and right) were sampled.
Both tympanic bullas (left and right) were collected, however, only the left one was used for the perilymph and inner ear analysis. The right bulla was stored at −20° C. for future needs when required. For animal IDs 1 and 4, the right bulla was used for the sampling of perilymph and inner ear.
The left bulla was dissected fresh. Briefly, the bulla was opened via the auditory opening to reveal the bone surrounding the cochlea after which the tip of the bone was removed with forceps and a 10 μL pipette tip was inserted to withdraw perilymph.
Upon exposure of the tip of the cochlea, 2 μL of perilymph (fluid) could be recovered from the bulla. The perilymph was brought to 10 μL by the addition of 8 μL water, and then extract via the addition of 30 μL of acetonitrile. After that, the samples were centrifuged and the supernatant was transferred to a glass vial appropriate for the HPLC-MS auto-sampler.
Following recovering of the perilymph, the bones of the inner ear and cochlea components were removed with fine forceps and added to a tared Eppendorf tube. The collection was weighed and brought to 10 mg with the addition of water and placed on ice until extraction. 30 μL of acetonitrile was added and the tubes were incubated in an ultrasound bath, after which they were centrifuged and the supernatant was transferred to a glass vial appropriate for the HPLC-MS auto-sampler. In the process or removing the bones of the inner ear, they were finely distributed in the media and broken by forceps. (Due to the very low volume of the tissue and its fine structure, separate grinding is considered risky vs the potential losses to plastic and media. The materials are very fine in nature and the bone particles are small thus providing only short interfaces to media. The absence of fat and the incubation in solvent is intended to provide sufficient solubility of active ingredient).
The acetonitrile used in the sample preparation for bio-analysis contained the internal standard for the HPLC-MS analysis.
30 μL acetonitrile including the internal standard were added to each 10 μL plasma sample. After adding the acetonitrile, the samples were mixed by vortex and further centrifuged. The supernatant was transferred to a glass vial appropriate for the HPLC-MS auto-sampler.
The LC system comprised an Agilent 1260 liquid chromatography equipped with a binary pump and a column oven, together with a PAL HTS-xt auto-sampler. It is linked to the AB SCIEX TRIPLE QUADTM 4500 (triple-quadrupole) instrument with an ESI interface and a switching valve integrated (Mass spectrometric analysis). […]

[1] = inner ear, Time 15 (min), read-out: Inner ear AUC (converted)
[2] = inner ear, Time 30 (min), read-out: Inner ear AUC (converted)
[3] = inner ear, Time 60 (min), read-out: Inner ear AUC (converted)
[4] = inner ear, Time 120 (min), read-out: Inner ear AUC (converted)
[5] = inner ear, Time 240 (min), read-out: Inner ear AUC (converted)
[6] = inner ear, Time 480 (min), read-out: Inner ear AUC (converted)
[7] = perilymph, Time 15 (min), read-out: Perilymph AUC (converted)
[8] = perilymph, Time 30 (min), read-out: Perilymph AUC (converted)
[9] = perilymph, Time 60 (min), read-out: Perilymph AUC (converted)
[10] = perilymph, Time 120 (min), read-out: Perilymph AUC (converted)
[11] = perilymph, Time 240 (min), read-out: Perilymph AUC (converted)
[12] = perilymph, Time 480 (min), read-out: Perilymph AUC (converted)
[13] = tail plasma, Time 15 (min), read-out: Tail plasma AUC (converted)
[14] = tail plasma, Time 30 (min), read-out: Tail plasma AUC (converted)
[15] = tail plasma, Time 60 (min), read-out: Tail plasma AUC (converted)
[16] = tail plasma, Time 120 (min), read-out: Tail plasma AUC (converted)
[17] = tail plasma, Time 240 (min), read-out: Tail plasma AUC (converted)
[18] = tail plasma, Time 480 (min), read-out: Tail plasma AUC (converted)

SMILES | Total AUC Inner ear | Total AUC Perilymph | Total AUC Tail plasma | concentration at 15 min (inner ear, Time 15 (min)) | concentration at 30 min (inner ear, Time 30 (min)) | concentration at 60 min (inner ear, Time 60 (min)) | concentration at 120 min (inner ear, Time 120 (min)) | concentration at 240 min (inner ear, Time 240 (min)) | concentration at 480 min (inner ear, Time 480 (min)) | AUC [1] | AUC [2] | AUC [3] | AUC [4] | AUC [5] | AUC [6] | AUC [7] | AUC [8] | AUC [9] | AUC [10] | AUC [11] | other results
CN1C(=O)COc2c(C(=O)NC3CN4CCC3CC4)cc(Cl)cc21 (racemic) [Racemic azasetron, N-(1-azabicyclo[2.2.2]octan-8-yl)-6-chloro-4-methyl-3-oxo-1,4-benzoxazine-8-carboxamide] | 43592 nM·min | 25873 nM·min | 177194 nM·min | 25 ng/g | 61 ng/g | 63 ng/g | 35 ng/g | 37 ng/g | 7 ng/g | 0.0119 µM·h | 0.0336 µM·h | 0.0887 µM·h | 0.14 µM·h | 0.204 µM·h | 0.248 µM·h | 0.0183 µM·h | 0.0328 µM·h | 0.0455 µM·h | 0.0635 µM·h | 0.117 µM·h | AUC [12]: 0.154 µM·h; AUC [13]: 0.168 µM·h; AUC [14]: 0.263 µM·h; AUC [15]: 0.309 µM·h; AUC [16]: 0.374 µM·h; AUC [17]: 0.758 µM·h; AUC [18]: 1.08 µM·h
CN1C(=O)COc2c(C(=O)N[C@H]3CN4CCC3CC4)cc(Cl)cc21 [(+)-azasetron] | 69036 nM·min | 40910 nM·min | 210768 nM·min | 57 ng/g | 86 ng/g | 93 ng/g | 79 ng/g | 52 ng/g | 6 ng/g | 0.0204 µM·h | 0.051 µM·h | 0.127 µM·h | 0.246 µM·h | 0.375 µM·h | 0.331 µM·h | 0.0194 µM·h | 0.0297 µM·h | 0.0517 µM·h | 0.129 µM·h | 0.227 µM·h | AUC [12]: 0.225 µM·h; AUC [13]: 0.0983 µM·h; AUC [14]: 0.192 µM·h; AUC [15]: 0.35 µM·h; AUC [16]: 0.622 µM·h; AUC [17]: 1.11 µM·h; AUC [18]: 1.14 µM·h; exposure (total AUC) to azasetron in the perilymph, inner ear, and plasma versus racemic azasetron or (−)-azasetron (single equivalent oral dose (10 mg/kg)): greater exposure (total AUC)
